The values below come from US20240228572A1 (i2o Therapeutics, Inc., priority 2020, published 2024).

Structures are written as SMILES. *1 amine or outer side, *2 acyl side, *3 side chain or, on linkers, in order; H or OH if unused. Where a SMILES comes first, the peptide text is derived from it. Side-chain parts run from the residue outwards. [ ]: non-standard residue; d: D form. The star is where a group is joined. C20 diacid = O=C(O)CCCCCCCCCCCCCCCCCCC(=O)*; γGlu = O=C(O)[C@H](CCC(=O)[*:2])N[*:1]; AEEA = NCCOCCOCC(=O)O; Aib = CC(C)(N)C(=O)O A value given as a limit tells only on which side of the number the result lay.

Data set [1] in a line: Stability in human subcutaneous (SC) tissue homogenates. It counts as in vitro ADME. As to conditions: subcutaneous (SC) tissue homogenate, 10 mcM peptide, 1.0 mg protein/mL, 37° C., pH 7.4, read-out: (H)SC tissue stability t½ (converted). The procedure: In vitro incubations in subcutaneous (SC) tissue homogenates were used to characterize the ability of peptides to resist pre-systemic degradation by proteases and peptidases after SC administration. In vivo nonclinical studies have shown that peptidase activity in the SC space can limit the bioavailability of a peptide after SC administration. Peptides with high SC bioavailability are stable in this assay, while peptides with low SC bioavailability are unstable in this assay.
Human SC tissue was homogenized in cold 25 mM HEPES buffer (pH 7.4, 10-fold volume based on sample weight), and then filtered through a double layer of cheesecloth. The filtrates were aliquoted, flash frozen on a methanol/dry ice bath and stored at −80° C. The protein concentration of each pooled batch was determined using the BCA protein assay. Thawed stocks of human SC tissue homogenates were diluted to 1.0 mg protein/mL in 25 mM HEPES buffer (pH 7.4) and aliquoted into a 96-well plate. The diluted SC homogenates were pre-warmed for 10 minutes at 37° C. Reactions were initiated by the addition of test peptide (10 mcM final concentration) also dissolved in 25 mM HEPES buffer (pH 7.4). Reactions were maintained at 37° C. in a shaking water bath. […] Samples were analyzed by UPLC-MS/MS.

The test system of the next data set is cynomolgus monkey GCGR. Put plainly: cAMP accumulation assay, CHO-K1 cells expressing cynomolgus monkey GCGR. It counts as cell-based. As to conditions: cyno glucagon receptor. The source says:
In the presence of the non-specific cAMP/cGMP phosphodiesterase inhibitor, 3-isobutyl-1-methylxanthine (IBMX), accumulating cAMP can be measured in vitro using common detection methods. Thus, it is possible to estimate an in vitro potency (pEC50) for peptides activating each of these receptors using fit dose-response curves for cAMP accumulation.
A cDNA fragment encoding the full-length open reading frame of the cynomolgus monkey GLP-1R (Genebank accession #XM_028847603 was cloned into pcDNA3.1+ for expression in CHO-K1 cells. A cDNA fragment encoding the full-length open reading frame of the human GCGR (Genebank accession #NM_000160 was cloned into pcDNA3.1+ for expression in CHO-K1 cells. A cDNA fragment encoding the full-length open reading frame of the rat GCGR (Genebank accession #NM_12091 was cloned into pcDNA3.1+ for expression in CHO-K1 cells. A cDNA fragment encoding the full-length open reading frame of the cynomolgus monkey GCGR (Genebank accession #XM_005585255 was cloned into pcDNA3.1+ for expression in CHO-K1 cells. […]
Peptides were serially diluted 4-fold in assay buffer to final concentrations ranging from 1×10^−9 M to 9.5×10^−16 M. Two assay controls consisting of 50 mcM forskolin (cAMP system maximum) or assay buffer only (cAMP system minimum) were also prepared. […] Plates were read on an Envision fluorescent plate reader (PerkinElmer). […]
For orientation: Changes in cAMP serve as a functional read-out for many G protein-coupled receptors.

A short description of data set [2]: Metabolic stability in human kidney brush border membranes (kBBM). It counts as in vitro ADME. Particulars: 1 mcM peptide, 50 mcg protein/mL, 37° C., pH 7.4, read-out: kBBM t½. The procedure: (§1) Brush border membranes from rat and human kidney tissue were prepared via centrifugation and stored at −70° C. Thawed stocks of rat or human kBBM were diluted to the appropriate concentration in 25 mM HEPES buffer (pH 7.4) containing 1% casein and aliquoted into a 96-well plate. The kBBM solutions were pre-warmed for 10 minutes at 37° C. Reactions were initiated by the addition of test peptide (1 mcM final concentration) also dissolved in 25 mM HEPES buffer (pH 7.4) containing 1% casein. The final concentration of kBBM in each incubation was 50 mcg protein/mL. Reactions were maintained at 37° C. in a shaking water bath. At 0, 0.25, 0.5, 1.0, 2.0, and 4.0 h post-initiation, 30 mcL of the reaction mixture was removed and placed into a 96-well plate containing 120 mcL of ice-cold methanol containing 2.5% formic acid. Quenched samples were centrifuged at 2178×g for 10 min and then a portion of the supernatants were transferred to a clean 96-well plate and diluted 1:1 with water.

The nature of data set [3]: Metabolic stability in rat kidney brush border membranes (kBBM). As to conditions: 1 mcM peptide, 50 mcg protein/mL, 37° C., pH 7.4, read-out: kBBM t½ (converted). It counts as in vitro ADME. The procedure:
as §1

Turning to `CC(C)C[C@H](NC(=O)[C@H](Cc1ccc(O)cc1)NC(=O)[C@H](CCCCN)NC(=O)[C@H](CO)NC(=O)[C@H](Cc1ccc(O)cc1)NC(=O)[C@H](CC(=O)O)NC(=O)[C@H](CO)NC(=O)[C@@H](NC(=O)[C@H](Cc1ccccc1)NC(=O)[C@@H](NC(=O)CNC(=O)[C@H](Cc1c[nH]cn1)NC(=O)[C@H](CO)NC(=O)[C@@H](N)Cc1ccc(O)cc1)[C@@H](C)O)[C@@H](C)O)C(=O)N[C@@H](CC(=O)O)C(=O)NC(C)(C)C(=O)N[C@@H](CCCCN)C(=O)N[C@@H](Cc1ccc(O)cc1)C(=O)N[C@@H](C)C(=O)N[C@@H](CCC(N)=O)C(=O)N[C@@H](CCCCNC(=O)CC[C@H](NC(=O)CC[C@H](NC(=O)COCCOCCNC(=O)CCCCCCCCCCCCCCCCCCC(=O)O)C(=O)O)C(=O)O)C(=O)N[C@@H](Cc1ccccc1)C(=O)N[C@H](C(=O)NC(C)(C)C(=O)N[C@@H](Cc1c[nH]c2ccccc12)C(=O)N[C@@H](CC(C)C)C(=O)N[C@@H](CCC(=O)O)C(=O)N[C@@H](CC(=O)O)C(=O)N[C@@H](CCC(=O)O)C(=O)N1CCC[C@H]1C(=O)N[C@@H](CO)C(=O)N[C@@H](CO)C(=O)NCC(=O)N[C@@H](C)C(=O)N1CCC[C@H]1C(=O)N1CCC[C@H]1C(=O)N1CCC[C@H]1C(=O)N[C@@H](CO)C(=O)O)C(C)C` [Compound A6] (H-YSHGTFTSDYSKYLD[Aib]KYAQK([γGlu-γGlu-AEEA-C20 diacid])FV[Aib]WLEDEPSSGAPPPS-OH; N-terminus assumed), in data set [1], the half-life at 10 mcM is 10.6 h. In the data set on cynomolgus monkey GCGR, the “Activity (as EC50 values) cGCGR” value stood at 9.77. Moreover, the half-life at 1 mcM in data set [2] is above 72 h; in data set [3] it was 6.6 h.
